Laboratory results from US11613538B2, “Method of inhibiting or reducing a viral infection” (PTC Therapeutics, Inc., priority 2009, dated 2023).

System: hypoxia-induced VEGF production in HeLa cells
Assay: cells
Type: cell-based, human
Settings: Homo sapiens, HeLa

| Structure (SMILES) | EC50 |
| --- | --- |
| CCOC(=O)N1CCc2c([nH]c3ccc(Cl)cc23)C1c1ccc(OCC(N)=O)cc1 (centres unmarked) [Compound 1210] | 8 to 40 nM |
| NC(=O)COc1ccc(C2c3[nH]c4ccc(Cl)cc4c3CCN2C(=O)OCCF)cc1 (centres unmarked) [Compound 1211] | 8 to 40 nM |
| CC#CCOC(=O)N1CCc2c([nH]c3ccc(Cl)cc23)C1c1ccc(OCC(N)=O)cc1 (centres unmarked) [Compound 1212] | 8 to 40 nM |
| NC(=O)COc1ccc(C2c3[nH]c4ccc(Cl)cc4c3CCN2C(=O)Oc2ccc(Br)cc2)cc1 (centres unmarked) [Compound 1214] | 8 to 40 nM |
| NC(=O)COc1ccc(C2c3[nH]c4ccc(Cl)cc4c3CCN2C(=O)Oc2ccc(F)cc2)cc1 (centres unmarked) [Compound 1215] | 8 to 40 nM |
| C=CCOc1ccc([C@H]2c3[nH]c4ccc(Cl)cc4c3CCN2C(=O)OCC)cc1 [Compound 1217] | < 8 nM |
| CCOC(=O)N1CCc2c([nH]c3ccc(Cl)cc23)[C@@H]1c1ccc(O)cc1 [Compound 1218] | 8 to 40 nM |
| Clc1ccc2[nH]c3c(c2c1)CCNC3c1ccc(OC2CCOCC2)cc1 (centres unmarked) [Compound 1220] | 40 to 200 nM |
| CCOC(=O)N1CCc2c([nH]c3ccc(Cl)cc23)[C@@H]1c1ccc(OC[C@H](O)CO)cc1 [Compound 1221] | < 8 nM |
| CCOC(=O)N1CCc2c([nH]c3ccc(Cl)cc23)[C@@H]1c1ccc(OC[C@@H](O)CO)cc1 [Compound 1222] | < 8 nM |
| CCOC(=O)N1CCc2c([nH]c3ccc(Cl)cc23)[C@@H]1c1ccc(OC[C@H]2COC(C)(C)O2)cc1 [Compound 1226] | < 8 nM |
| CC1(C)OC[C@H](COc2ccc([C@H]3c4[nH]c5ccc(Cl)cc5c4CCN3C(=O)Oc3ccc(Cl)cc3)cc2)O1 [Compound 1227] | < 8 nM |
| CCOC(COc1ccc(C2c3[nH]c4ccc(Cl)cc4c3CCN2C(=O)Oc2ccc(Cl)cc2)cc1)OCC (centres unmarked) [Compound 1228] | < 8 nM |
| O=C(Oc1ccc(Cl)cc1)N1CCc2c([nH]c3ccc(Cl)cc23)C1c1ccc(OC(CO)CO)cc1 (centres unmarked) [Compound 1231] | 8 to 40 nM |
| CC#CCOC(=O)N1CCc2c([nH]c3ccc(Cl)cc23)C1c1ccc(OC)c(F)c1 (centres unmarked) [Compound 1232] | 40 to 200 nM |
| CCCN(CCC)CCCOc1ccc([C@H]2c3[nH]c4ccc(Cl)cc4c3CCN2C(=O)OCC)cc1 [Compound 1233] | 8 to 40 nM |
| CCCN(CCC)CCCOc1ccc([C@H]2c3[nH]c4ccc(Cl)cc4c3CCN2C(=O)Oc2ccc(Cl)cc2)cc1 [Compound 1234] | < 8 nM |
| O=C(Oc1ccc(Cl)cc1)N1CCc2c([nH]c3ccc(Cl)cc23)[C@@H]1c1ccc(OCCCNC2CCCC2)cc1 [Compound 1235] | 8 to 40 nM |
| CCOC(=O)N1CCc2c([nH]c3ccc(Cl)cc23)[C@@H]1c1ccc(OCCCNC2CCCC2)cc1 [Compound 1236] | 8 to 40 nM |
| C=CCOc1ccc([C@H]2c3[nH]c4ccc(Cl)cc4c3CCN2c2ncccn2)cc1 [Compound 1237] | < 8 nM |
| CC(C)(C)OC(=O)N1CCc2c([nH]c3ccc(Cl)cc23)[C@@H]1c1ccc(OCCCn2ccnn2)cc1 [Compound 1239] | < 8 nM |
| CC(C)(C)OC(=O)N1CCc2c([nH]c3ccc(Cl)cc23)[C@@H]1c1ccc(OCCCn2nccn2)cc1 [Compound 1240] | < 8 nM |
| Oc1ccc([C@H]2c3[nH]c4ccc(Cl)cc4c3CCN2c2ncccn2)cc1 [Compound 1241] | 8 to 40 nM |
| CC1(C)OCC(COc2ccc([C@H]3c4[nH]c5ccc(Cl)cc5c4CCN3c3ncccn3)cc2)CO1 [Compound 1242] | < 8 nM |

| Structure (SMILES) | EC50 |
| --- | --- |
| OCC(CO)COc1ccc(C2c3[nH]c4ccc(Cl)cc4c3CCN2c2ncccn2)cc1 (centres unmarked) [Compound 1243] | 8 to 40 nM |
| CC1(C)OC[C@H](CCOc2ccc([C@H]3c4[nH]c5ccc(Cl)cc5c4CCN3c3ncccn3)cc2)O1 [Compound 1244] | < 8 nM |
| Clc1ccc2[nH]c3c(c2c1)CCN(c1ncccn1)[C@H]3c1ccc(OC[C@@H]2CO2)cc1 [Compound 1245] | 8 to 40 nM |
| Clc1ccc2[nH]c3c(c2c1)CCN(c1ncccn1)[C@H]3c1ccc(OC[C@H]2CO2)cc1 [Compound 1246] | 8 to 40 nM |
| COc1ccc(C2c3[nH]c4ccc(Cl)cc4c3CCN2C(N)=S)cc1 (centres unmarked) [Compound 1247] | 200 to 1000 nM |
| O[C@H](COc1ccc([C@H]2c3[nH]c4ccc(Cl)cc4c3CCN2c2ncccn2)cc1)CN1CCOCC1 [Compound 1249] | < 8 nM |
| CCOC(=O)N1CCc2c([nH]c3ccc(Cl)cc23)[C@@H]1c1ccc(OCCCO)cc1 [Compound 1251] | < 8 nM |
| CC(C)OC(=O)N1CCc2c([nH]c3ccc(Cl)cc23)[C@@H]1c1ccc(OCCCO)cc1 [Compound 1252] | < 8 nM |
| O=C(OC1CCCC1)N1CCc2c([nH]c3ccc(Cl)cc23)[C@@H]1c1ccc(OC2CCOCC2)cc1 [Compound 1253] | < 8 nM |
| O[C@@H](COc1ccc([C@H]2c3[nH]c4ccc(Cl)cc4c3CCN2c2ncccn2)cc1)CN1CCOCC1 [Compound 1254] | < 8 nM |
| O=C(Oc1ccc(Cl)cc1)N1CCc2c([nH]c3ccc(Cl)cc23)[C@@H]1c1ccc(OCCCNC(CO)(CO)CO)cc1 [Compound 1255] | 40 to 200 nM |
| OCCCOc1ccc([C@H]2c3[nH]c4ccc(Cl)cc4c3CCN2c2ncccn2)cc1 [Compound 1256] | < 8 nM |
| O=C(Oc1ccc(Cl)cc1)N1CCc2c([nH]c3ccc(Cl)cc23)[C@@H]1c1ccc(OCCCNCCO)cc1 [Compound 1257] | 8 to 40 nM |
| O=C(Oc1ccc(Cl)cc1)N1CCc2c([nH]c3ccc(Cl)cc23)[C@@H]1c1ccc(OCCCN(CCO)CCO)cc1 [Compound 1258] | < 8 nM |
| CC1(C)OC[C@@H](COc2ccc([C@H]3c4[nH]c5ccc(Cl)cc5c4CCN3C(=O)Oc3ccc(Cl)cc3)cc2)O1 [Compound 1260] | < 8 nM |
| CCOC(=O)N1CCc2c([nH]c3ccc(Cl)cc23)[C@@H]1c1ccc(OC[C@@H]2COC(C)(C)O2)cc1 [Compound 1261] | < 8 nM |
| C=CCOc1ccc([C@H]2c3[nH]c4ccc(Cl)cc4c3CCN2C(=O)OC2CCCC2)cc1 [Compound 1262] | < 8 nM |
| CCOC(=O)N1CCc2c([nH]c3ccc(Cl)cc23)[C@@H]1c1ccc(OCCCNC2CC2)cc1 [Compound 1264] | 8 to 40 nM |
| CCOC(=O)N1CCc2c([nH]c3ccc(Cl)cc23)C1c1ccc(OC)cc1F (centres unmarked) [Compound 1268] | < 8 nM |
| CCOC(=O)N1CCc2c([nH]c3ccc(Cl)cc23)[C@@H]1c1ccc(OCCC(O)CNC(C)=O)cc1 (some centres unmarked) [Compound 1270] | 8 to 40 nM |
| CCOC(=O)N1CCc2c([nH]c3ccc(Cl)cc23)[C@@H]1c1ccc(OCCC(O)CNC(=O)COC)cc1 (some centres unmarked) [Compound 1271] | 8 to 40 nM |
| CCOC(=O)N1CCc2c([nH]c3ccc(Cl)cc23)[C@@H]1c1ccc(OCCC(O)CN2CCOCC2)cc1 (some centres unmarked) [Compound 1272] | < 8 nM |
| CCOC(=O)N1CCc2c([nH]c3ccc(Cl)cc23)[C@@H]1c1ccc(OCCC(O)CN(CCO)CCO)cc1 (some centres unmarked) [Compound 1273] | 8 to 40 nM |
| CCOC(=O)N1CCc2c([nH]c3ccc(Cl)cc23)[C@@H]1c1ccc(OCCC(O)Cn2ccnn2)cc1 (some centres unmarked) [Compound 1274] | < 8 nM |

| Structure (SMILES) | EC50 |
| --- | --- |
| CCOC(=O)N1CCc2c([nH]c3ccc(Cl)cc23)[C@@H]1c1ccc(OCCC(O)Cn2nccn2)cc1 (some centres unmarked) [Compound 1275] | < 8 nM |
| O=C(Oc1ccc(Cl)cc1)N1CCc2c([nH]c3ccc(Cl)cc23)[C@@H]1c1ccc(OCCC(O)CN2CCOCC2)cc1 (some centres unmarked) [Compound 1279] | < 8 nM |
| O=C(Oc1ccc(Cl)cc1)N1CCc2c([nH]c3ccc(Cl)cc23)[C@@H]1c1ccc(OCCC(O)CN(CCO)CCO)cc1 (some centres unmarked) [Compound 1280] | 8 to 40 nM |
| CCOC(=O)N1CCc2c([nH]c3ccc(Cl)cc23)[C@@H]1c1ccc(OCC(C)(CO)CO)cc1 [Compound 1283] | < 8 nM |
| CCOC(=O)N1CCc2c([nH]c3ccc(Cl)cc23)[C@@H]1c1ccc(OCC2(C)COC(C)(C)OC2)cc1 [Compound 1284] | < 8 nM |
| O=C(OC1CCCC1)N1CCc2c([nH]c3ccc(Cl)cc23)[C@@H]1c1ccc(OCCCO)cc1 [Compound 1285] | < 8 nM |
| O=C(OC1CCCC1)N1CCc2c([nH]c3ccc(Cl)cc23)[C@@H]1c1ccc(O)cc1 [Compound 1286] | 40 to 200 nM |
| CCOC(=O)N1CCc2c([nH]c3ccc(Cl)cc23)[C@@H]1c1ccc(OCCC(O)Cn2cncn2)cc1 (some centres unmarked) [Compound 1287] | 8 to 40 nM |
| Cc1ccc(OC(=O)N2CCc3c([nH]c4ccc(Cl)cc34)[C@@H]2c2ccc(OCCC(O)CN(CCO)CCO)cc2)cc1 (some centres unmarked) [Compound 1288] | 8 to 40 nM |
| CC#CCOC(=O)N1CCc2c([nH]c3ccc(Cl)cc23)[C@@H]1c1ccc(OCCCCl)cc1 [Compound 1294] | < 8 nM |
| CC(C)OC(=O)N1CCc2c([nH]c3ccc(Cl)cc23)[C@@H]1c1ccc(OCC[C@H](O)CO)cc1 [Compound 1295] | < 8 nM |
| CC(C)OC(=O)N1CCc2c([nH]c3ccc(Cl)cc23)[C@@H]1c1ccc(OCC(C)(CO)CO)cc1 [Compound 1296] | 8 to 40 nM |
| COc1ccc([C@H]2C3Nc4ccc(Cl)cc4C3CCN2C(=O)OC2CCCC2)cc1 (some centres unmarked) [Compound 1298] | < 8 nM |
| Cc1ccc(OC(=O)N2CCC3c4cc(Cl)ccc4NC3[C@@H]2c2ccc(OCCC(O)CN3CCOCC3)cc2)cc1 (some centres unmarked) [Compound 1302] | 40 to 200 nM |
| O[C@@H](CCOc1ccc([C@H]2c3[nH]c4ccc(Cl)cc4c3CCN2c2ncccn2)cc1)CN1CCOCC1 [Compound 1303] | < 8 nM |
| O[C@@H](CCOc1ccc([C@H]2c3[nH]c4ccc(Cl)cc4c3CCN2c2ncccn2)cc1)CN1CCCCC1 [Compound 1304] | < 8 nM |
| CCN(CC)C[C@@H](O)CCOc1ccc([C@H]2c3[nH]c4ccc(Cl)cc4c3CCN2c2ncccn2)cc1 [Compound 1305] | 8 to 40 nM |
| CN1CCN(C[C@@H](O)CCOc2ccc([C@H]3c4[nH]c5ccc(Cl)cc5c4CCN3c3ncccn3)cc2)CC1 [Compound 1306] | 8 to 40 nM |
| CN1CCN(C[C@H](O)COc2ccc([C@H]3c4[nH]c5ccc(Cl)cc5c4CCN3c3ncccn3)cc2)CC1 [Compound 1308] | < 8 nM |
| CCN(CC)C[C@H](O)COc1ccc([C@H]2c3[nH]c4ccc(Cl)cc4c3CCN2c2ncccn2)cc1 [Compound 1309] | 8 to 40 nM |
| O[C@H](COc1ccc([C@H]2c3[nH]c4ccc(Cl)cc4c3CCN2c2ncccn2)cc1)CN1CCCCC1 [Compound 1310] | 8 to 40 nM |
| CCN(CC)C[C@@H](O)COc1ccc([C@H]2c3[nH]c4ccc(Cl)cc4c3CCN2c2ncccn2)cc1 [Compound 1311] | 40 to 200 nM |
| CN1CCN(C[C@@H](O)COc2ccc([C@H]3c4[nH]c5ccc(Cl)cc5c4CCN3c3ncccn3)cc2)CC1 [Compound 1312] | 8 to 40 nM |
